Source: paper PMC12408501, “A novel fluorescent probe, triphenylamine rhodamine-3-acetic acid (mRA) for the detection of Amyloid-β aggregates in Alzheimer's disease” (Frontiers in Neuroscience, 2025)

Molecular target: T1, Amyloid-β (Aβ1-42) aggregates (Homo sapiens, UniProt P05067)
T1 construct: gene APP; Aβ1-42 (aggregates)
Assay: fluorescence enhancement titration (supported by far-UV CD and van't Hoff analysis)
Type: binding

T1 sequence (P05067 672-713): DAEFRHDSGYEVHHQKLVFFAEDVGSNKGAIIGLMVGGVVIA

Kd: 341 ± 17 nM
Structure (SMILES): O=C(O)CN1C(=O)/C(=C/c2ccc(N(c3ccccc3)c3ccccc3)cc2)SC1=S [mRA, triphenylamine rhodamine-3-acetic acid]
